From US20030032674A1, “Use of unsaturated fatty acids to treat severe inflammatory diseases” (priority 2001, published 2003)

Assays:
[1] = system: COX-2 promoter; test: COX-2 promoter luciferase reporter gene assay, transiently transfected RAW 264.7 cells; type: cell-based, murine; parameters: lauric acid-induced COX-2 expression on co-transfection of dominant-negative IkBa / lauric acid-induced COX-2 expression on co-transfection of dominant-negative PPARγ / lauric acid-induced COX-2 expression on co-transfection of dominant-negative TLR4 [DTLR4 (P712H)]: dose or concentration left out as unconfirmed
Description: Plasmids and DNA Constructs—All plasmids and constructs were obtained or made as reported in either S. H. Rhee and D. Hwang, “Murine TOLL-like receptor 4 confers lipopolysaccaride responsiveness as determined by activation of NFκB and expression of the inducible cyclooxygenase,” Journal of Biological Chemistry, vol. 275, pp. 34035-34040 (2000); and J. Y. Lee et al., “Saturated fatty acids, but not unsaturated fatty acids, induce the expression of cyclooxygenase-2 mediated through TOLL-like receptor 4,” Journal of Biological Chemistry, vol. 276, pp. 16683-16689 (2001). Briefly, the luciferase reporter plasmids (pGL2) containing the promoter region of the murine COX-2 gene (−3201/+93 or −1017/+93) were provided by David Dewitt (Michigan State University, East Lansing, Mich.). To prepare the wild-type COX-2 promoter fragment, polymerase chain reaction (PCR) was performed with the primers named Kpn-COX2-For and Hind-COX2-Rev using the murine COX-2 (−1017/+93) luciferase reporter plasmid as a template. To prepare the mutant COX-2 promoter fragment containing mutated NFκB site, Kpn-COX2-Fmut and Hind-COX2-Rev were used as primers. Each PCR fragment was inserted into the KpnI and HindIII sites of pGL2 to generate the wild-type or mutant COX-2 (−410/+86) luciferase reporter constructs, respectively. Sequences for wild-type NFκB site and the primers were used as reported elsewhere. (See Lee et al., 2001). The 2×NFκB-luciferase reporter construct was a gift from Frank Mercurio (Signal Pharmaceuticals, San Diego, Calif.). HSP70-β-galactosidase reporter plasmid was a gift from Robert Modlin (University of California, Los Angeles, Calif.). The expression plasmids for a constitutively active form of TLR4 (DTLR4) and a dominant-negative mutant, DTLR4 (P712H) were prepared as previously described. See S. H. Rhee et al., 2000. The expression plasmid of the wild-type NFκB-inducing kinase (NIK), pRK-NIK(wt) was a gift from Mike Rothe (Tularik, South San Francisco, Calif.). The dominant-negative mutant of inhibitor kB (pCMV4-IkBa(DN)) was provided by Dean Ballard (Vanderbilt University, Nashville, Tenn.). 4×NFκB-luciferase reporter construct was purchased from Clontech (Palo Alto, Calif.) and used for transient transfection. Heat shock protein 70 (HSP70)-β-galactosidase reporter plasmid was from Robert Modlin (University of Calif., Los Angeles, Calif.). The expression plasmids for a wild-type TLR2 and a dominant-negative mutant [TLR2 (P681H)] were from C. B. Wilson (University of Washington, Seattle, Wash.). Constitutively active chimeric CD4-TLR4 was obtained from C. A. Janeway, Jr. (Yale University, New Haven, Conn.). The constitutively active form of MyD88 (MyD88(ΔToll)) and the dominant-negative mutant, MyD88(ΔDD) were kindly provided by Jurg Tschopp (University of Lausanne, Switzerland). The dominant-negative mutant of mouse PPARg [pCMX-PPARg(L466A/L467A)] was a gift from Ira Schulman (Ligand Pharmaceuticals, San Diego, Calif.). All DNA constructs were prepared in large scale using the EndoFree Plasmid Maxi kit (Qiagen, Chatsworth, Calif.) for transfection.
Transient transfection and luciferase assay—These procedures were performed as described in S. H. Rhee et al., “Murine TOLL-like receptor 4 confers lipopolysaccharide responsiveness as determined by activation of NFκB and expression of the inducible cyclooxygenase,” J. Biol. Chem., vol. 275, pp. 34035-34040 (2000); and J. H. Paik et al., “Two opposing effects of non-steroidal anti-inflammatory drugs on the expression of the inducible cyclooxygenase, Mediation through different signaling pathways,” J. Biol. Chem., vol. 275, pp. 28173-28179 (2000). Briefly, RAW 264.7 cells were plated in 6-well plates (5×10^5 cells/well) and transfected with luciferase reporter plasmids and HSP70-β-galactosidase plasmid as an internal control using SuperFect transfect reagent (Quiagen) according to the manufacturer's instructions. […]

[2] = system: COX-2 promoter; test: COX-2 promoter luciferase reporter, stably transfected RAW 264.7 cells, TLR agonist-induced; type: cell-based, murine; conditions: pretreated 3 hrs
Method: Preparation of stably transfected cells with luciferase reporter plasmids. RAW 264.7 cells (1×10^6 cells) were plated in 100 mm dish and transfected with murine COX-2 promoter (−3.2 kb) luciferase plasmid using Superfect Transfection reagent (Qiagen) according to the manufacturer's instruction. pcDNA3/neo was co-transfected to select transfected cells using the antibiotic. After 48 hrs of stabilization, the new media containing Geneticin (500 μg/ml) was added and changed for appropriate time periods. Two weeks later, the colonies that survived were selected and propagated under Geneticin. After another two weeks of antibiotic selection, the luciferase activities were determined for each colony after treatment with LPS (100 ng/ml).
These stably transfected cell lines eliminated the necessity of transfecting plasmids for the reporter gene and the internal control. Thus, inhibitory or stimulatory effects of various fatty acids on agonist-induced TLR activation were quantitatively determined in a high throughput mode using 96 well plates. […] Therefore, NFκB activation and COX-2 expression was used as readouts for agonist-induced TLR activation, and its suppression or potentiation by fatty acids in this experiment. […]
(FIG. 10A). […] After 8 hrs, luciferase activities were determined. Data are expressed as a percentage of PamCAG treatment alone.

CCCCCCCCCCCC(=O)O [lauric acid]
lauric acid-induced COX-2 expression on co-transfection of dominant-negative IkBa ([1]; 24 hours): inhibited | lauric acid-induced COX-2 expression on co-transfection of dominant-negative TLR4 [DTLR4 (P712H)] ([1]; 24 hours): inhibits | lauric acid-induced COX-2 expression on co-transfection of dominant-negative PPARγ ([1]; 24 hours, with or without PPRE-like sequences): not altered | lauric acid-induced COX-2 expression, promoter with mutated NFκB site vs wild-type site ([1]; COX-2 promoter reporter with mutated NFκB site): significantly reduced | effect on LPS-induced COX-2 expression (reporter gene) ([2]; LPS 200 ng/ml 8 hrs): potentiated | effect on PamCAG-induced COX-2 expression ([2]; PamCAG 500 ng/ml 8 hrs): potentiated
